What was measured:
[1] = test system: TT cells (MTC, RET C634W); assay: TT cell proliferation (CellTiter-Glo); type: cell-based, human; details: Homo sapiens, TT, 72 h
Procedure: When TT cells were cultured to the appropriate fusion level, TT cells were collected, and the cells were adjusted to the appropriate cell concentration using complete medium, and the cell suspension was spread in a 96-well plate, 90 µL per well, and placed in a 37° C., 5% CO2 incubator overnight; and compound solutions of different concentrations were prepared using DMSO and culture medium; and a solvent control was set, the compound solution was added to a 96-well plate, 10 µL per well, at 37° C. in a 5% CO2 incubator for 72 hours; CellTiter-Glo solution was added thereto and the mixture was mixed well by shaking, incubated for 10 min in the dark, and read by BioTek Synergy H1 microplate reader.
The luminescence signal values were used to calculate the inhibition rate, the concentration and the inhibition rate were fitted to a nonlinear regression curve using Graphpad Prism software.

[2] = Balb/C mouse pharmacokinetics, oral; type: in vivo; details: male, mouse, po, Balb/C mice, p.o., 5 mg/kg, plasma
Procedure: The pharmacokinetic behavior of the following compound embodiments, administered orally at a dose of 5 mg/kg in plasma in mice, was studied using Balb/C mice as test animals.
Balb/C Mouse 6/embodiment, male, Shanghai Jiesijie Laboratory Animal Co., Ltd, Animal Production License No. (SCXK (Shanghai) 2013-0006 N0.311620400001794).
Balb/C mice, males; p.o. after overnight fasting, respectively, at a dose of 5 mg/kg, administered in a volume of 10 mL/kg.
0.5% CMC-Na(1% Tween80) was dissolved by ultrasound, and prepared into clear solution or uniform suspension.
Before and after administration, 0.1 mL of blood was collected from mice at 0, 0.5, 1, 2, 4, 6, 8 and 24 hours by orbital collection, placed in EDTA-K2 tubes, centrifuged at 6000 rpm at 4° C. for 6 min to separate plasma, and stored at −80° C.
40 μL of plasma sample was precipitated by adding 160 μL of acetonitrile, mixed and centrifuged at 3500×g for 5-20 min.
100 μL of the supernatant solution after treatment was taken to analyze the concentration of the test compound by LC/MS/MS.
The main pharmacokinetic parameters were calculated using WinNonlin 6.1 and the results of the mouse pharmacokinetic experiments were shown in Table 8 below.

[3] = molecular target: T1, RET M918T (Homo sapiens, UniProt P07949, M918T); assay: HTRF kinase assay, RET M918T; type: biochemical; details: ATP at Km
T1 construct: purchased Carna 08-508
T1 sequence (P07949 29-1114 M918T): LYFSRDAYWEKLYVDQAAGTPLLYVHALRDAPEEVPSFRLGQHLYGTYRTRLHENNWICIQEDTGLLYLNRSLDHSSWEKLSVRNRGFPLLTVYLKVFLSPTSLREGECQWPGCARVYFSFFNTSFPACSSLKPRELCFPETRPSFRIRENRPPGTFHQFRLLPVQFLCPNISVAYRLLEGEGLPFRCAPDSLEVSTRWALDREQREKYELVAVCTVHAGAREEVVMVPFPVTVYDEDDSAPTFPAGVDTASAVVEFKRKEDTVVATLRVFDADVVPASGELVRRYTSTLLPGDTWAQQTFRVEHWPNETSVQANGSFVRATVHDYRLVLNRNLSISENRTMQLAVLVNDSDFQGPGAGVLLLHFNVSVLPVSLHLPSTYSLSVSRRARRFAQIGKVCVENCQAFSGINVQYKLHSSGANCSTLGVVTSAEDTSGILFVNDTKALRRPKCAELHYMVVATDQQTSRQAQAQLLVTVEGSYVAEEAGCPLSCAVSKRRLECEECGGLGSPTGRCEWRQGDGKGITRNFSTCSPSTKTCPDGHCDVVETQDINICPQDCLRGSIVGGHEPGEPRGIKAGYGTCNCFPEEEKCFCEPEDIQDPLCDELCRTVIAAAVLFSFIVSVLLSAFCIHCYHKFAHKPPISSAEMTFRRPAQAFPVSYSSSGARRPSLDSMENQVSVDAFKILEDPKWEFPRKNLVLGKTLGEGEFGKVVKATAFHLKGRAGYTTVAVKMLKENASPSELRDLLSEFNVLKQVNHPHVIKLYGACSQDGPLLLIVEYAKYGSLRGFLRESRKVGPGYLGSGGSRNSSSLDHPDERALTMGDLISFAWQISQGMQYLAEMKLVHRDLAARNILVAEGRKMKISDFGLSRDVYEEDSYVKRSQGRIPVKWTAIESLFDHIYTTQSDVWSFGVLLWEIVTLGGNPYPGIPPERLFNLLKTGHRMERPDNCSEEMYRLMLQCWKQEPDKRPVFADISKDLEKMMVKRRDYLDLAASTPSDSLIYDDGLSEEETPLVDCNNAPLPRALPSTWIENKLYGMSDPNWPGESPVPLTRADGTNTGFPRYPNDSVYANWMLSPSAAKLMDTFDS
Text: (§1) • RET enzyme was purchased from Carna Company, and the article number was 08-159; • RET M918T enzyme was purchased from Carna Company, and the article number was 08-508; • KIF5B-RET was purchased from SignalChem Company, the article number was R02-19FG-05; • CCDC6-RET was purchased from SignalChem Company, the article number was R02-19BG-05; • RET V804M enzyme was purchased from Thermofisher Company, and the article number was PV6223; • RET V804L enzyme was purchased from Thermofisher Company, and the article number was PV4397; • HTRF KinEASE-TK kit was purchased from Cisbio Company, and the article number was 62TK0PEC; • ATP was purchased from Thermofisher Company, and the article number was PV3227; • 384-well plate was purchased from PerkinElmer Company, and the article number was 6007290.
(§2) In this experiment, the homogeneous time-resolved fluorescence (HTRF) method was used for the detection of compounds on RET kinase activity.

[4] = molecular target: T2, KDR kinase (Homo sapiens, UniProt P35968); assay: HTRF kinase assay, KDR; type: biochemical; details: for IC50: HTRF, ATP at Km; for Ratio (KDR/RET): KDR IC50 / RET IC50
T2 construct: purchased Carna 08-191
T2 sequence (P35968 20-1356): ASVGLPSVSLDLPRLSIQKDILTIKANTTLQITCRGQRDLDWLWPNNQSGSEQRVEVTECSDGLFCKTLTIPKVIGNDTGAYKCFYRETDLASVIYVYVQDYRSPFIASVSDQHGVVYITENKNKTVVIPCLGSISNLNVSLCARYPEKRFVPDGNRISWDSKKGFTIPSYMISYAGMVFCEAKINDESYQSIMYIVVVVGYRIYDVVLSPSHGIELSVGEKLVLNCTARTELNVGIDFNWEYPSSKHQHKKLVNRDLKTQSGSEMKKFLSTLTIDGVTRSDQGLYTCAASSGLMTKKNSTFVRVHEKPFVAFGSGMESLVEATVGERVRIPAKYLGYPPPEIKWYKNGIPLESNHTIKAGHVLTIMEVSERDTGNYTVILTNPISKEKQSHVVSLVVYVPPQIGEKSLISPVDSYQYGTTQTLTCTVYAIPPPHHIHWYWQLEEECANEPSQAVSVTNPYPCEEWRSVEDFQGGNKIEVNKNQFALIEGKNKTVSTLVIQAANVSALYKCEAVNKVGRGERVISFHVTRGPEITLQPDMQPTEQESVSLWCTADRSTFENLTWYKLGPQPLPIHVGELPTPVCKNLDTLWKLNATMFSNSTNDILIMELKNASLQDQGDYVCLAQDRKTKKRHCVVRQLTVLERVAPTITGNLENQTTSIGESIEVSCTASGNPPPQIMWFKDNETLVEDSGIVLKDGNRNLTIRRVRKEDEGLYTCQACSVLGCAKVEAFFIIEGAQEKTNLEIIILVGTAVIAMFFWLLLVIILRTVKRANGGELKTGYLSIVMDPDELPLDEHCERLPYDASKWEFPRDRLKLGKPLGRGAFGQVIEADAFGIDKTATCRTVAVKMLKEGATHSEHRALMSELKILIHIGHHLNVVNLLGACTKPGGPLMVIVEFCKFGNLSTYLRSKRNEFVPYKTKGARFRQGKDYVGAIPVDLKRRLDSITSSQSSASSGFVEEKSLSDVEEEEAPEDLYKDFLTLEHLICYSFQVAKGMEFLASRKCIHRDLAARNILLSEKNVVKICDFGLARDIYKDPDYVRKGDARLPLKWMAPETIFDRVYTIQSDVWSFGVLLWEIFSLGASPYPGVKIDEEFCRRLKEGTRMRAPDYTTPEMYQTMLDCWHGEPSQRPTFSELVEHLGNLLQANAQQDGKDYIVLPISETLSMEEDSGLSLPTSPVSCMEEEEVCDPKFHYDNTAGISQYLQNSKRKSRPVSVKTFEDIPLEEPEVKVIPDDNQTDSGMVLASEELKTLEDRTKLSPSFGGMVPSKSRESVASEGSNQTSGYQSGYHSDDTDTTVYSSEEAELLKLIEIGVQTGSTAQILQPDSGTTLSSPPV
Text: • KDR kinase was purchased from Carna Company, and the article number was 08-191; • HTRF KinEASE-TK kit was purchased from Cisbio Company, and the article number was 62TK0PEC; • ATP was purchased from Thermofisher Company, and the article number was PV3227; • 384-well plate was purchased from PerkinElmer Company, and the article number was 6007290.
In this experiment, the homogeneous time-resolved fluorescence (HTRF) method was used for the detection of compounds on KDR kinase activity.

[5] = molecular target: T3, Ba/F3 KIF5B-RET cells (Homo sapiens, UniProt P07949); assay: Ba/F3 KIF5B-RET cell proliferation (CellTiter-Glo); type: cell-based; details: 72 to 144 hours, read-out: Ba/F3 KIF5B-RET IC50
T3 construct: fused on or other part: P33176 (Kinesin-1 heavy chain)
T3 sequence (P07949 whole entry, change not shown, the tested form may be a part): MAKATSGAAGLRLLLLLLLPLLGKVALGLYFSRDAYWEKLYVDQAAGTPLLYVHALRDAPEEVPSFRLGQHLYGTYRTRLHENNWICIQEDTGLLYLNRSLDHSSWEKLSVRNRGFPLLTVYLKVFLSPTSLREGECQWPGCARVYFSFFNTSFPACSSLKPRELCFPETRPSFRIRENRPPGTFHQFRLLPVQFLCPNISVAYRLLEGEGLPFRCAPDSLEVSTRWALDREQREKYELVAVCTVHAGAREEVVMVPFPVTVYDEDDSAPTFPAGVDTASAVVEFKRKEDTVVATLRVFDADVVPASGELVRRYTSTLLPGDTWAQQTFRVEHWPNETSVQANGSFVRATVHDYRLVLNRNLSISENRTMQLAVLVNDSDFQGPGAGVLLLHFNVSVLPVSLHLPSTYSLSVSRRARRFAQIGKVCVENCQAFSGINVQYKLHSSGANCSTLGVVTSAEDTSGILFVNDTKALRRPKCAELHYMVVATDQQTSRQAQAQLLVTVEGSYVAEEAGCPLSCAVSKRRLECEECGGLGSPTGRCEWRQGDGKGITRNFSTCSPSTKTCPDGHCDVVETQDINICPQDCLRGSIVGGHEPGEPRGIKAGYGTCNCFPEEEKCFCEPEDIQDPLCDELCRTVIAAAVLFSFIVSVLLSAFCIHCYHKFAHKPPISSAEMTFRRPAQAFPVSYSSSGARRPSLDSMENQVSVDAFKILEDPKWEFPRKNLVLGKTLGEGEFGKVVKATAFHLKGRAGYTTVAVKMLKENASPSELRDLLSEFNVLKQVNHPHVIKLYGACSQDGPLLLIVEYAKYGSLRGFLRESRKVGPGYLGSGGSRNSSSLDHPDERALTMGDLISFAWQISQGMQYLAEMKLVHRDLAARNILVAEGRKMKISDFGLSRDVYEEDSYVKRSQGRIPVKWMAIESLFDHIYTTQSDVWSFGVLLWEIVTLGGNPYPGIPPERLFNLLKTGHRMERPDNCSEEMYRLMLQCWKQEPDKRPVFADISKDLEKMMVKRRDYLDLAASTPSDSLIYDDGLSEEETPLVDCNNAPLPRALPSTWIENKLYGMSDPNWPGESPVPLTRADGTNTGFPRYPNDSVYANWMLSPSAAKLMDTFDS
Procedure: When Ba/F3 KIF5B-RET cells were cultured to the appropriate cell density, cells were collected, and the cells were adjusted to the appropriate cell concentration using complete medium, and the cell suspension was spread in a 96-well plate, 90 μL per well, and placed in a 37° C., 5% CO2 incubator for overnight; compound solutions of different concentrations were prepared using DMSO and culture medium; a solvent control was set, and the compound solution was added to a 96-well plate with 10 μL per well at 37° C. in a 5% CO2 incubator for 72 to 144 hours; CellTiter-Glo solution was added thereto and mixed well by shaking, incubated for 10 min in the dark, and read by BioTek Synergy H1 microplate reader.
The luminescence signal values were used to calculate the inhibition rate, the concentrations and the inhibition rates were fitted to a nonlinear regression curve using Graphpad Prism software.

[6] = molecular target: T4, RET (Homo sapiens, UniProt P07949); assay: HTRF kinase assay, RET wild-type; type: biochemical; details: ATP at Km
T4 construct: purchased Carna 08-159
T4 sequence (P07949 29-1114): as the sequence (P07949 29-1114 M918T) above, with T890M counted along it
Text: as §1, §2

| Structure (SMILES) | IC50 [1] [nM] | MRT ([2]; read-out: Average residence time MRT) [h] | Cmax ([2]; read-out: Blood concentration Cmax) [ng/mL] | AUC(0-t) ([2]; read-out: Curve area AUC0-t) [ng·h/mL] | AUC(0-inf) ([2]; read-out: Curve area AUC0-∞) [ng·h/mL] | half-life ([2]; read-out: Half-life t1/2 (converted)) [h] | Tmax ([2]; read-out: Peak time tmax) [h] | IC50 [3] [nM] | IC50 [4] [nM] | Ratio (KDR/RET) [4] | GI50 [5] [nM] | IC50 [6] [nM] |
| --- | --- | --- | --- | --- | --- | --- | --- | --- | --- | --- | --- | --- |
| COc1ccc(CN2C3CC2CN(c2ccc(-c4cc(OCC5(C#N)CC5)cn5ncc(C#N)c45)cn2)C3)cn1 [Embodiment 106, 6-((1-Cyanocyclopropyl)methoxy)-4-(6-(6-((6-methoxypyridin-3-yl)methyl)-3,6-diazabicyclo[3.1.1]heptan-3-yl)pyridin-3-yl)pyrazolo[1,5-a]pyridine-3-carbonitrile] | 19 | 4.71 | 3120 | 18900 | 18900 | 2.66 | 0.5 | 0.47 | – | – | – | – |
| COc1ncc(CN2C3CC2CN(c2ccc(-c4cc(OC[C@H]5C[C@@](C)(O)C5)cn5ncc(C#N)c45)cn2)C3)cc1F [Embodiment 161, 4-(6-(6-((5-Fluoro-6-methoxypyridin-3-yl)methyl)-3,6-diazabicyclo[3.1.1]heptan-3-yl)pyridin-3-yl)-6-((cis-3-hydroxy-3-methylcyclobutyl)methoxy)pyrazolo[1,5-a]pyridine-3-carbonitrile] | 13.9 | – | – | – | – | – | – | – | 7.4 | 20 | 8.59 | 0.37 |
| CC1(NC(=O)c2ncccc2Cl)CCN(c2ccc(-c3cc(C#CC4(O)COC4)cn4ncc(C#N)c34)cn2)CC1 [Embodiment 175, 3-Chloro-N-(1-(5-(3-cyano-6-((3-hydroxyoxetan-3-yl)ethynyl)pyrazolo[1,5-a]pyridin-4-yl)pyridin-2-yl)-4-methylpiperidin-4-yl)picolinamide] | 18.5 | – | – | – | – | – | – | – | 47 | 185 | 15.5 | 0.25 |
